Assay results reported in patent US9856230B2 (University of Sunderland, priority 2012, dated 2018).
Like-named read-outs stand apart in the source and are kept apart here.

Legend:
[1] = target: T1, Trx system (thioredoxin/thioredoxin reductase) (Homo sapiens, UniProt Q16881); test: Thioredoxin/thioredoxin reductase insulin reduction assay; type: biochemical; details: for inhibition at 500 µM: compound at 500 μM, read-out: Inhib. (%) Trx Syst. at 500 μM
T1 sequence (Q16881 151-649 limits assumed): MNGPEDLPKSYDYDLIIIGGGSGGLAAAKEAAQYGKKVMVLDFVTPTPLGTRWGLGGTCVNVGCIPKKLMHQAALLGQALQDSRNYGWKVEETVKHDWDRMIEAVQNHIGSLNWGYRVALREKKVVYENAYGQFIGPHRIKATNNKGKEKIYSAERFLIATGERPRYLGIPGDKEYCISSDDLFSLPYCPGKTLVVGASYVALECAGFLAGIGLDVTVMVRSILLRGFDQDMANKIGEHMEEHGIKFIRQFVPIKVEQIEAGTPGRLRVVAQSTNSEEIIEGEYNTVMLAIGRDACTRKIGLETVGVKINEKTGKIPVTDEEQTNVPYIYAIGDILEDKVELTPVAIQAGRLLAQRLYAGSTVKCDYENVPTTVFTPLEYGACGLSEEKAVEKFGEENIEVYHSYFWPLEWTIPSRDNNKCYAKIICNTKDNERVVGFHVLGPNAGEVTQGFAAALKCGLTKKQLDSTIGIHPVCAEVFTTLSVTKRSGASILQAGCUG
Method: Thioredoxin/thioredoxin reductase inhibition was measured using the insulin reduction assay (Stevens, M. F. G., Pallis, M., Bradshaw, T. D., Westwell, A. D., Grundy, M., Russell, N, “Induction of apoptosis without redox catastrophe by thioredoxin-inhibitory compounds”, Biochem. Pharmacol. (2003) 66, 1695-1705). […] The first part of the assay involves TrxR reducing oxidized Trx via NADPH. The reduced Trx then reduces disulfide bonds in the insulin, leaving exposed thiol groups, as summarized by the Trx reaction scheme.
The addition of dithionitrobenzoic acid (DTNB) to the free thiol groups of the insulin cleaves the disulfide bond in the DTNB which gives rise to a yellow colour (DTNB reaction scheme). The yellow colour is observed under basic conditions due to the conjugation of electrons between the thiolate anion and the nitro group of thionitrobenzoic acid (TNB). The level of thioredoxin/thioredoxin reductase inhibitory activity is […] proportional to the intensity of the yellow colour.
Addition of DTNB to reduced insulin produces thionitrobenzoic acid (TNB) and a mixed insulin disulfide. DTNB has very little absorbance, but under mild basic conditions TNB forms an anion that gives an intense yellow colour at 412 nm.
Synthesized compounds were tested for thioredoxin/thioredoxin reductase activity using the thioredoxin/thioredoxin reductase insulin assay described above under the heading “Assays”. The compounds were also tested for antiproliferative activity using the MTT assay described above under the heading “Assays”. Theoretical C log P values for the compounds were calculated using ChemDraw. The C log P of a compound is the logarithm of the compound's partition coefficient between n-octanol and water log(coctanol/cwater) and represents a measure of the compound's hydrophilicity and hydrophobicity. […]

[2] = system: HPV-16 immortalized keratinocyte cell line (CCD-1106 KERTr); test: cells; type: cell-based; details: Homo sapiens;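 also: growth inhibition read as spectrophotometric formazan colour from mitochondrial dehydrogenase cleavage of MTT, proportional to viable cell number, modelling psoriatic hyperproliferation, lower values mean stronger antiproliferative activity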
Source text: The assay is based on the ability of a mitochondrial dehydrogenase enzyme to cleave the tetrazolium rings of the yellow MTT to form dark blue formazan crystals (MTT reaction scheme). These crystals are mostly impermeable to cell membranes and, consequently, they accumulate in healthy viable cells. The addition of detergent solubilizes the cells, which results in the liberation of purple formazan crystals. The number of viable cells is directly proportional to the level of purple formazan produced. This colour change can be measured by a spectrophotometer enabling quantification of changes in cellular proliferation. Compound activity measured by the MTT assay (or other proliferation related assay) may be given as a GI50 value.
A human papilloma virus-16 (HPV-16) immortalized keratinocyte cell line (CCD-1106 KERTr) was used in the MTT cell viability assay.
Antiproliferative activity is indicated by the MTT GI50 (μM), where a lower value indicates higher activity.

[3] = insulin reduction assay, read-out: Trx System IC50
[4] = CCD-1106 KERTr keratinocytes, read-out: MTT GI50

Structure (SMILES)	inhibition at 500 µM [1]	IC50 [1, 3]	GI50 [2, 4]	IC50 [1]	GI50 ([2]; CCD-1106, read-out: MTT GI50 (μM))	IC50 ([2]; CCD-1106, read-out: IC50 in MTT assay (antiproliferative activity))
Cc1ccc(S(=O)(=O)Nc2ccc(NC(=O)c3cccs3)cc2NS(=O)(=O)c2ccc(C)cc2)cc1 [(55), N-(3,4-bis-(toluene-4-sulfonylamino)phenyl)-2-thiophenecarboxamide]	61.5%	494 µM	3.3 µM	–	–	–
Cc1ccc(S(=O)(=O)Nc2ccc(CN)cc2NS(=O)(=O)c2ccc(C)cc2)cc1 [(30), 3,4-bis(toluene-4-sulfonylamino)benzyl amine]	98.7%	377 µM	162 µM	–	–	–
COC(=O)c1ccc(NS(=O)(=O)c2ccc([N+](=O)[O-])cc2)c(NS(=O)(=O)c2ccc([N+](=O)[O-])cc2)c1 [(19a), methyl 3,4-bis-(4-nitrobenzenesulfonylamino)benzoate]	53.3%	–	–	475 µM	11.2 µM	–
COC(=O)c1ccc(NS(=O)(=O)c2ccc(C(F)(F)F)cc2)c(NS(=O)(=O)c2ccc(C(F)(F)F)cc2)c1 [(19b), methyl 3,4-bis-(4-trifluoromethylbenzenesulfonylamino)benzoate]	33.4%	429 µM	5.4 µM	–	–	–
Cc1ccc(S(=O)(=O)Nc2ccc(C(N)=O)cc2NS(=O)(=O)c2ccc(C)cc2)cc1 [(29), 3,4-bis-(toluene-4-sulfonylamino)benzamide]	19.9%	–	104 µM	–	–	–
CCOC(=O)CN(CC(=O)OCC)Cc1ccc(NS(=O)(=O)c2ccc(C)cc2)c(NS(=O)(=O)c2ccc(C)cc2)c1 [(32), ethyl {[3,4-bis-(toluene-4-sulfonylamino)benzyl]-ethoxycarbonylmethyl-amino}acetate]	58.1%	–	9 µM	–	–	–
Cc1ccc(S(=O)(=O)Nc2ccc(NC(=O)Cn3ccc(=O)[nH]c3=O)cc2NS(=O)(=O)c2ccc(C)cc2)cc1 [(42), N-[3,4-bis-(toluene-4-sulfonylamino)phenyl]-2-(2,4-dioxo-3,4-dihydro-2H-pyrimidin-1-yl)acetamide]	70.7%	339 µM	100 µM	–	–	–
Cc1ccc(S(=O)(=O)Nc2ccc(NC(=O)Nc3ccccc3)cc2NS(=O)(=O)c2ccc(C)cc2)cc1 [(33e), phenyl [3,4-bis(toluene-4-sulfonylamino)]phenyl urea]	0%	–	6.2 µM	–	–	–
Cc1ccc(S(=O)(=O)Nc2ccc(C(=O)O)cc2NS(=O)(=O)c2ccc(C)cc2)cc1 [(35), 3,4-bis-(toluene-4-sulfonylamino)benzoic acid]	20%	–	67.3 µM	–	–	–
O=C(Nc1ccc(NS(=O)(=O)c2ccc(F)cc2)c(NS(=O)(=O)c2ccc(F)cc2)c1)c1ccco1 [Compound (103)]	–	–	–	–	–	36.2 µM
COC(=O)c1ccc(NS(=O)(=O)c2ccc(Cl)s2)c(NS(=O)(=O)c2ccc(Cl)s2)c1 [(25), methyl 3,4-bis-(5-chloro-thiophene-2-sulfonylamino)benzoate]	61%	–	1.2 µM	–	–	–
Cc1ccc(S(=O)(=O)Nc2ccc(NS(N)(=O)=O)cc2NS(=O)(=O)c2ccc(C)cc2)cc1 [(33c), 3,4-bis(toluene-4-sulfonylamino)phenylsulfamide]	38.6%	–	114 µM	–	–	–
COC(=O)c1ccc(NS(=O)(=O)c2ccc(N)cc2)c(NS(=O)(=O)c2ccc(N)cc2)c1 [(19e), methyl 3,4-bis-(4-aminobenzenesulfonylamino)benzoate]	86.7%	386 µM	> 420 µM	–	–	–
COC(=O)c1ccc(NS(=O)(=O)c2ccc(C)cc2)c(NS(=O)(=O)c2ccc(C)cc2)c1 [(12), methyl 3,4-diamino-N,N-bis-(toluene-4-sulfonylamino)benzoate]	30%	1360 µM	4.1 µM	–	–	–
COC(=O)c1ccc(NS(=O)(=O)c2ccc(Cl)cc2)c(NS(=O)(=O)c2ccc(Cl)cc2)c1 [(27), methyl 3,4-bis-(4-chlorobenzenesulfonylamino)benzoate]	62.3%	277 µM	0.64 µM	–	–	–
COC(=O)c1ccc(NS(=O)(=O)c2ccc(OC(F)(F)F)cc2)c(NS(=O)(=O)c2ccc(OC(F)(F)F)cc2)c1 [(19c), methyl 3,4-bis-(4-trifluoromethoxybenzenesulfonylamino)benzoate]	43.7%	546 µM	2.2 µM	–	–	–
CC(C)=CCN(CC=C(C)C)Cc1ccc(NS(=O)(=O)c2ccc(C)cc2)c(NS(=O)(=O)c2ccc(C)cc2)c1 [(31), [3,4-bis-(toluene-4-sulfonylamino)benzyl]bis-(3-methyl-but-2-enyl)amine]	70%	–	7.9 µM	–	–	–
Cc1ccc(S(=O)(=O)Nc2ccc(CO)cc2NS(=O)(=O)c2ccc(C)cc2)cc1 [(36), (3,4-bis-(toluene-4-sulfonylamino)phenyl)methanol]	50%	–	19.1 µM	–	–	–
Cc1ccc(S(=O)(=O)Nc2ccc(C#N)cc2NS(=O)(=O)c2ccc(C)cc2)cc1 [(21b), 3,4-bis-(toluene-4-sulfonylamino)benzonitrile]	58.4%	–	4.7 µM	–	–	–
Cc1ccc(S(=O)(=O)Nc2ccc(C(=O)NC(C)(C)C)cc2NS(=O)(=O)c2ccc(C)cc2)cc1 [(28), N-tert-butyl-3,4-bis-(toluene-4-sulfonylamino)benzamide]	10%	–	5.1 µM	–	–	–
Cc1ccc(S(=O)(=O)Nc2ccc(C(=N)NO)cc2NS(=O)(=O)c2ccc(C)cc2)cc1 [(21c), N-hydroxy-3,4-bis-(toluene-4-sulfonylamino)benzamidine]	32.4%	–	108 µM	–	–	–
Cc1ccc(S(=O)(=O)Nc2ccc(-c3noc(C(C)C)n3)cc2NS(=O)(=O)c2ccc(C)cc2)cc1 [(21d), 1-(5′-isopropyl-1′,2′,4′-oxadiazol-3-yl)-3,4-bis-(toluene-4-sulfonylamino)benzene]	13.9%	–	3.2 µM	–	–	–
Cc1ccc(S(=O)(=O)Nc2ccc(-c3ccc(F)c(C#N)c3)cc2NS(=O)(=O)c2ccc(C)cc2)cc1 [(53), 3′,4′-bis-(toluene-4-sulfonylamino)-4-fluorobiphenyl-3-carbonitrile]	71.1%	106 µM	0.156 µM	–	–	–
CCNC(=O)Nc1ccc(NS(=O)(=O)c2ccc(C)cc2)c(NS(=O)(=O)c2ccc(C)cc2)c1 [(33d), ethyl [3,4-bis(toluene-4-sulfonylamino)]phenyl urea]	88.3%	–	55.9 µM	–	–	–
COC(=O)c1ccc(NS(=O)(=O)c2ccc(OC)cc2)c(NS(=O)(=O)c2ccc(OC)cc2)c1 [(19d), methyl 3,4-bis-(4-methoxybenzenesulfonylamino)benzoate]	14.6%	–	5.2 µM	–	–	–
C=CC(=O)Nc1ccc(NS(=O)(=O)c2ccc(C)cc2)c(NS(=O)(=O)c2ccc(C)cc2)c1 [(39), N-[3,4-bis-(toluene-4-sulfonylamino)-phenyl]acrylamide]	73.9%	156 µM	18.8 µM	–	–	–
Cc1ccc(S(=O)(=O)Nc2ccc(C=O)cc2NS(=O)(=O)c2ccc(C)cc2)cc1 [(37), 3,4-bis-(toluene-4-sulfonylamino)benzaldehyde]	81%	374 µM	12 µM	–	–	–
Cc1ccc(S(=O)(=O)Nc2ccc(N)cc2NS(=O)(=O)c2ccc(C)cc2)cc1 [(33b), 3,4-bis(toluene-4-sulfonylamino)phenyl amine]	31.6%	–	48.9 µM	–	–	–
